The text below walks through data of ChEMBL document CHEMBL4130445, “TNF-α and IL-6 inhibitors: Conjugates of N-substituted indole and aminophenylmorpholin-3-one as anti-inflammatory agents” (Eur J Med Chem, 2017).

Active and inactive are the calls of the source. No cut-off for these calls is given here. Bounds are passed on as bounds.

Data set [1] deals with BV-2. The experiment in a line: Cytotoxicity in mouse BV2 cells assessed as reduction in cell viability incubated for 48 hrs by MTT assay. The data set is classed as cell-based. The conditions noted are these: BV-2, 48 h. On the technique in general: Tetrazolium assays rely on reduction of a dye to a coloured formazan, in cell work by metabolically active cells.
A short description of data set [2]: Cytotoxicity in mouse BV2 cells assessed as cell viability at 100 uM incubated for 48 hrs by MTT assay (reference value: 100%). In kind it is cell-based, BV-2. The conditions noted are these: read-out: Activity.
Data set [3] in a line: Cytotoxicity in mouse BV2 cells assessed as cell viability at 40 uM incubated for 48 hrs by MTT assay (reference value: 100%). The conditions noted are these: read-out: Activity. In kind it is cell-based, BV-2.
The nature of data set [4]: Cytotoxicity in mouse BV2 cells assessed as cell viability at 80 uM incubated for 48 hrs by MTT assay (reference value: 100%). The data set is classed as cell-based, BV-2. To be noted: read-out: Activity.
Data set [5] can be described thus: Cytotoxicity in mouse BV2 cells assessed as cell viability at 5 uM incubated for 48 hrs by MTT assay (reference value: 100%). The data set is classed as cell-based, BV-2. To be noted: read-out: Activity.
Data set [6] in a line: Cytotoxicity in mouse BV2 cells assessed as cell viability at 0.5 uM incubated for 48 hrs by MTT assay (reference value: 100%). In kind it is cell-based, BV-2. To be noted: read-out: Activity.
The test system of data set [7] is BV-2. The experiment in a line: Suppression of LPS-induced morphological changes in mouse BV2 cells at 1 to 20 uM pre-incubated before LPS stimulation by phase contrast microscopy. The data set is classed as functional, cell-based.
Data set [8] concerns BV-2. As to the kind of experiment: Suppression of LPS-induced morphological changes in mouse BV2 cells at 10 uM pre-incubated before LPS stimulation by phase contrast microscopy. The data set is classed as functional, cell-based.
Data set [9] can be described thus: Cytotoxicity in mouse BV2 cells assessed as cell viability at 1 uM incubated for 48 hrs by MTT assay (reference value: 100%). In kind it is cell-based, BV-2. To be noted: read-out: Activity.
The nature of data set [10]: Cytotoxicity in mouse BV2 cells assessed as cell viability at 20 uM incubated for 48 hrs by MTT assay (reference value: 100%). In kind it is cell-based, BV-2. To be noted: read-out: Activity.
Data set [11] can be described thus: Cytotoxicity in mouse BV2 cells assessed as cell viability at 60 uM incubated for 48 hrs by MTT assay (reference value: 100%). The data set is classed as cell-based, BV-2. The conditions noted are these: read-out: Activity.
Data set [12] concerns the target T1, Prostaglandin G/H synthase 2 (Homo sapiens) (UniProt P35354).
T1 sequence (whole entry): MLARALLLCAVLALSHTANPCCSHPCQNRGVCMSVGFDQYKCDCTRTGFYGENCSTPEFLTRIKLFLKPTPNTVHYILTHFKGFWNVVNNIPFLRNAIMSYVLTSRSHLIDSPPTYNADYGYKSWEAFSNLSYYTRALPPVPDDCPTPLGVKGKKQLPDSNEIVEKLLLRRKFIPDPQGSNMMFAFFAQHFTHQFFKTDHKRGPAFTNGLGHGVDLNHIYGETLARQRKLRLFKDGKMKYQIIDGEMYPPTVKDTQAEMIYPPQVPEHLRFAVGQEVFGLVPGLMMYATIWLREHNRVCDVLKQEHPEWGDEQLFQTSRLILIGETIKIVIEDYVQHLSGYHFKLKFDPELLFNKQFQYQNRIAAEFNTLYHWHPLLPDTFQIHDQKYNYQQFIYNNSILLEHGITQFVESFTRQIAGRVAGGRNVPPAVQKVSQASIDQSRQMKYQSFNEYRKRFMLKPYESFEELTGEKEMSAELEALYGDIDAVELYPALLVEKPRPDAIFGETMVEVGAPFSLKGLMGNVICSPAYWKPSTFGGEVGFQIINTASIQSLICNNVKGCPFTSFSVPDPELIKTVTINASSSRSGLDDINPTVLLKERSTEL
As to the kind of experiment: Inhibition of COX2 (unknown origin) by immunoassay.

A short description of data set [13]: Cytotoxicity in mouse BV2 cells assessed as cell viability at 10 uM incubated for 48 hrs by MTT assay (reference value: 100%). The data set is classed as cell-based, BV-2. To be noted: read-out: Activity.
Data set [14] in a line: Cytotoxicity in mouse BV2 cells assessed as cell viability at 15 uM incubated for 48 hrs by MTT assay (reference value: 100%). The data set is classed as cell-based, BV-2. The conditions noted are these: read-out: Activity.
The target of data set [15] is Transcription factor Jun (Mus musculus) (UniProt P05627). The experiment in a line: Inhibition of LPS-induced AP1 nuclear translocation in mouse BV2 cells pre-incubated before LPS stimulation by immunostaining based confocal laser microscopy. The data set is classed as cell-based.
The test system of data set [16] is BV-2. The experiment in a line: Inhibition of LPS-induced MMP2 production production in mouse BV2 cells pre-incubated before LPS stimulation by gelatin zymography. In kind it is functional, cell-based.
Data set [17] has as its system BV-2. As to the kind of experiment: Inhibition of LPS-induced TNFalpha production in mouse BV2 cells assessed as TNFalpha level at 10 uM pre-incubated before LPS stimulation by ELISA (reference value: 142.71%). In kind it is functional. Set-up: scale not given: the % may be the effect or the level left.
For data set [18], the system named is BV-2. The experiment in a line: Inhibition of LPS-induced nitric oxide production in mouse BV2 cells assessed as nitric oxide level at 20 uM pre-incubated before LPS stimulation by Griess reagent based assay (reference value: 121.09%). In kind it is functional. On the set-up: scale not given: the % may be the effect or the level left. Background: Griess reagent forms a coloured azo dye with nitrite.

Data set [19] has as its system BV-2. The experiment in a line: Suppression of LPS-induced morphological changes in mouse BV2 cells at 5 uM pre-incubated before LPS stimulation by phase contrast microscopy. In kind it is functional, cell-based.
In data set [20] the test system is BV-2. As to the kind of experiment: Inhibition of LPS-induced TNFalpha production in mouse BV2 cells at 10 uM pre-incubated before LPS stimulation by ELISA. In kind it is functional. A general note: ELISA stands for enzyme-linked immunosorbent assay.
Data set [21] concerns BV-2. As to the kind of experiment: Inhibition of LPS-induced IL6 production in mouse BV2 cells assessed as IL6 level at 20 uM pre-incubated before LPS stimulation by ELISA (reference value: 146.75%). In kind it is functional. On the set-up: scale not given: the % may be the effect or the level left.
For data set [22], the system named is BV-2. The experiment in a line: Inhibition of LPS-induced IL6 production in mouse BV2 cells at 20 uM pre-incubated before LPS stimulation by ELISA. The data set is classed as functional.
Data set [23] is filed under the species Mus musculus. The experiment in a line: Inhibition of LPS-induced NFkappaB nuclear translocation in mouse BV2 cells pre-incubated before LPS stimulation by immunostaining based confocal laser microscopy. In kind it is cell-based.
Data set [24] relates to BV-2. As to the kind of experiment: Inhibition of LPS-induced MMP9 production production in mouse BV2 cells pre-incubated before LPS stimulation by gelatin zymography. In kind it is functional, cell-based.
The test system of data set [25] is Mus musculus. As to the kind of experiment: Analgesic activity in Swiss albino mouse model of acetic acid induced writhing assessed as inhibition of pain response at 10 mg/kg, ip dosed 30 mins before acetic acid injection. In kind it is functional.
In data set [26] the test system is BV-2. The experiment in a line: Inhibition of LPS-induced MMP2 production production in mouse BV2 cells assessed as MMP2 protein level pre-incubated before LPS stimulation by gelatin zymography (reference value: 105.071%). The data set is classed as functional. Set-up: scale not given: the % may be the effect or the level left.
Data set [27] has as its system BV-2. The experiment in a line: Inhibition of LPS-induced nitric oxide production in mouse BV2 cells assessed as nitric oxide level at 10 uM pre-incubated before LPS stimulation by Griess reagent based assay (reference value: 121.09%). In kind it is functional. Set-up: scale not given: the % may be the effect or the level left.
Data set [28] has as its system BV-2. As to the kind of experiment: Inhibition of LPS-induced MMP9 production production in mouse BV2 cells assessed as MMP9 protein level pre-incubated before LPS stimulation by gelatin zymography (reference value: 105.113%). The data set is classed as functional. On the set-up: scale not given: the % may be the effect or the level left.
In data set [29] the test system is BV-2. As to the kind of experiment: Inhibition of LPS-induced IL6 production in mouse BV2 cells at 10 uM pre-incubated before LPS stimulation by ELISA. In kind it is functional.
Data set [30] concerns BV-2. The experiment in a line: Inhibition of LPS-induced IL6 production in mouse BV2 cells assessed as IL6 level at 10 uM pre-incubated before LPS stimulation by ELISA (reference value: 146.75%). The data set is classed as functional. Set-up: scale not given: the % may be the effect or the level left.
Data set [31] relates to BV-2. As to the kind of experiment: Inhibition of LPS-induced TNFalpha production in mouse BV2 cells at 20 uM pre-incubated before LPS stimulation by ELISA. In kind it is functional.
Data set [32] deals with BV-2. The experiment in a line: Inhibition of LPS-induced TNFalpha production in mouse BV2 cells assessed as TNFalpha level at 20 uM pre-incubated before LPS stimulation by ELISA (reference value: 142.71%). In kind it is functional. Set-up: scale not given: the % may be the effect or the level left.
In data set [33] the test system is Mus musculus. As to the kind of experiment: Toxicity in Swiss albino mouse model of acetic acid induced writhing up to 2000 mg/kg, ip dosed 30 mins before acetic acid injection. In kind it is organism-based. The conditions noted are these: in vivo, 0.5 h.
The subject of data set [34] is BV-2. The experiment in a line: Inhibition of LPS-induced TNFalpha production in mouse BV2 cells at 60 uM pre-incubated before LPS stimulation by ELISA. In kind it is functional.
The test system of data set [35] is BV-2. The experiment in a line: Inhibition of LPS-induced TNFalpha production in mouse BV2 cells at 100 uM pre-incubated before LPS stimulation by ELISA. The data set is classed as functional.

Transcription factor Jun (Mus musculus), sequence (P05627 whole entry): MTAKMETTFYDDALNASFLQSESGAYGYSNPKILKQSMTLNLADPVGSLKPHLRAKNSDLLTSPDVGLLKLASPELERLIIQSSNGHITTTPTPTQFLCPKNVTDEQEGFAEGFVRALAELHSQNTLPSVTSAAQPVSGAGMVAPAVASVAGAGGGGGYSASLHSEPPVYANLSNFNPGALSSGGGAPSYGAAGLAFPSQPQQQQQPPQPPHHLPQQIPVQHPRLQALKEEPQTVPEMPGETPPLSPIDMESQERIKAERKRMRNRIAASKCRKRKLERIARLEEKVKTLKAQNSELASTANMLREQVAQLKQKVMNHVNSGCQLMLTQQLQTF

Usually IC50 stands for the point on the concentration scale where inhibition reaches its midpoint. A word on the inhibition: it is the percentage by which the read-out fell short of the control. As for `O=C1COCCN1c1ccc(/N=C\c2cn(Cc3ccc(F)cc3)c3ccccc23)cc1`, the IC50 in data set [1] is above 100 µM. In addition, the viability at 48 h, 100 µM in data set [2] is 55.5%. Further, in data set [3], the viability at 48 h, 40 µM stood at 77.7%. In addition, in data set [4], the viability at 48 h, 80 µM was determined as 59%. In addition, the viability at 48 h, 5 µM in data set [5] worked out at 69.3%. For the same compound, in data set [6], the viability at 48 h, 0.5 µM was 102%. In addition, the result in data set [7] and in data set [8] was inactive. For the same compound, in data set [9], the viability at 48 h, 1 µM stood at 87.8%. The viability at 48 h, 20 µM in data set [10] is 84.2%. Also, the viability at 48 h, 60 µM in [11] was 67.4%. Also, the inhibition entry in data set [12] is “inactive”. Moreover, the viability at 48 h, 10 µM in data set [13] came out at 90%. In addition, the viability at 48 h, 15 µM in [14] turned out to be 86.1%.

As a reminder, the inhibition in vivo is the share of the control response that was lost under treatment. Turning to `O=C1COCCN1c1ccc(/N=C\c2cn(C(=O)c3ccc(Cl)cc3)c3ccccc23)cc1`, the IC50 in data set [1] is above 100 µM. The inhibition result in data set [15], in [16], in [23] and in [24] was “Active” in each case. Further, in data set [2], the viability at 48 h, 100 µM is 80.5%. Further, the Activity stood at 56.34% in data set [17]; 100.905% in data set [18]; 69.12% in data set [21]; 84.884% in [26]; 100.905% in data set [27]; 89.261% in data set [28]. Also, the Activity in data set [30] is recorded as 76.51%; in data set [32] it was 41.58%; in [33], “Non-Toxic”. The result in data set [19] and in [8] was Active. In data set [3], the viability at 48 h, 40 µM worked out at 96.6%. Further, the inhibition at 10 µM in data set [20] amounted to 60.5%; in data set [29], 47.9%. Moreover, the viability at 48 h, 80 µM in [4] came out at 90.3%. For the same compound, the figures for the inhibition at 20 µM in data set [22] and in data set [31] were 52.9% and 70.9%, respectively. For the same compound, the viability at 48 h, 5 µM in data set [5] came to 93.6%. Also, the viability at 48 h, 0.5 µM in data set [6] was 95.2%. Also, the inhibition in vivo at 10 mg/kg in data set [25] amounted to 74.9%. In [9], the viability at 48 h, 1 µM is 97.6%. The viability at 48 h, 20 µM in data set [10] turned out to be 99%. Also, in data set [11], the viability at 48 h, 60 µM was 84.2%. The inhibition result in data set [12] was “inactive”. In addition, the viability at 48 h, 10 µM in data set [13] turned out to be 90.1%. For the same compound, the viability at 48 h, 15 µM in data set [14] is 105%.

`NC(=O)N1C(=O)/C(=C(\O)c2cccs2)c2cc(Cl)ccc21` [TENIDAP] registered an inhibition at 60 µM in data set [34] of 67%.

In data set [35], `COc1ccc2c(c1)c(CC(=O)O)c(C)n2C(=O)c1ccc(Cl)cc1` [INDOMETHACIN] registered an inhibition at 100 µM of 50%.
